According to the supplement of paper PMC10307832:

Key:
Assay in all cases: relative viability (nuclei count vs DMSO), 5 days (fraction); higher = more cells survive
[1] = compound: CC1=CC=C(C=C1)C(=O)CN2C3=C(CCCC3)SC2=N [Pifithrin_alpha] + NC(=O)Nc1cc(-c2cccc(F)c2)sc1C(=O)N[C@H]1CCCNC1 [AZD7762] (partner 0.2 µM)
Procedure, shortened: (§1)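 Relative viability was taken as the ratio of nuclei in treated wells to nuclei in vehicle wells. Lung cancer cell lines in 1536-well plates received compounds by pin tool one day after seeding, either one drug alone or a fixed anchor-drug dose plus five library-drug doses (not always all listed) in √10 steps. Nuclei were counted on 4× images after 5 days of treatment, and values are medians of duplicate plates.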

Bemcentinib + Trametinib = compound: Nc1nc(Nc2ccc3c(c2)CC[C@@H](N2CCCC2)CC3)nn1-c1cc2c(nn1)-c1ccccc1CCC2 [Bemcentinib] + CC(=O)Nc1cccc(-n2c(=O)n(C3CC3)c(=O)c3c(Nc4ccc(I)cc4F)n(C)c(=O)c(C)c32)c1 [Trametinib] (partner 0.02 µM)
Procedure, shortened: as §1

Bemcentinib + Olaparib = compound: Nc1nc(Nc2ccc3c(c2)CC[C@@H](N2CCCC2)CC3)nn1-c1cc2c(nn1)-c1ccccc1CCC2 [Bemcentinib] + O=C(c1cc(Cc2n[nH]c(=O)c3ccccc23)ccc1F)N1CCN(C(=O)C2CC2)CC1 [Olaparib] (partner 8 µM)
Procedure, shortened: as §1

[2] = compound: CC1=CC=C(C=C1)C(=O)CN2C3=C(CCCC3)SC2=N [Pifithrin_alpha] + CS(=O)(=O)CCNCc1ccc(-c2ccc3ncnc(Nc4ccc(OCc5cccc(F)c5)c(Cl)c4)c3c2)o1 [Lapatinib] (partner 2 µM)
Procedure, shortened: as §1

Cell Line | relative viability ([1]; first compound 1 µM) | relative viability ([1]; first compound 3.162 µM) | relative viability ([1]; first compound 10 µM) | relative viability ([1]; first compound 31.62 µM) | relative viability ([1]; first compound 100 µM) | relative viability (Bemcentinib + Trametinib; first compound 0.04 µM) | relative viability (Bemcentinib + Trametinib; first compound 0.1265 µM) | relative viability (Bemcentinib + Trametinib; first compound 0.4 µM) | relative viability (Bemcentinib + Trametinib; first compound 1.265 µM) | relative viability (Bemcentinib + Trametinib; first compound 4 µM) | relative viability (Bemcentinib + Olaparib; first compound 0.04 µM) | relative viability (Bemcentinib + Olaparib; first compound 0.1265 µM) | relative viability (Bemcentinib + Olaparib; first compound 0.4 µM) | relative viability (Bemcentinib + Olaparib; first compound 1.265 µM) | relative viability (Bemcentinib + Olaparib; first compound 4 µM) | relative viability ([2]; first compound 1 µM) | relative viability ([2]; first compound 3.162 µM) | relative viability ([2]; first compound 10 µM) | relative viability ([2]; first compound 31.62 µM) | relative viability ([2]; first compound 100 µM)
LCLC-103H | 0.792 | 0.846 | 0.791 | 0.721 | 0.85 | 0.706 | 0.736 | 0.679 | 0.712 | 0.707 | 0.802 | 0.811 | 0.796 | 0.86 | 0.783 | – | – | – | – | –
NCI-H441 | 1.34 | 1.16 | 1.3 | – | 1.06 | 0.294 | 0.435 | 0.499 | 0.347 | 0.409 | 0.606 | 0.665 | 0.53 | 0.537 | 0.402 | – | – | – | – | –
NCI-H520 | – | – | – | – | – | 0.723 | 0.859 | 0.706 | 0.713 | 0.733 | 0.394 | 0.335 | 0.343 | 0.387 | 0.415 | 1.01 | 0.978 | 0.88 | 0.694 | 0.878
NCI-H522 | 0.835 | 1.11 | 0.851 | 0.799 | 0.802 | 0.75 | 0.742 | 0.754 | 0.771 | 0.788 | 0.739 | 0.696 | 0.593 | 0.556 | 0.652 | – | – | – | – | –
NCI-H661 | – | – | – | – | – | 0.62 | 0.678 | 0.604 | 0.553 | 0.595 | 0.692 | 0.782 | 0.789 | 0.738 | 0.763 | 0.673 | 0.488 | 0.446 | 0.508 | 0.486
NCI-H1299 | – | – | – | – | – | – | – | – | – | – | 1.01 | 1.02 | 0.961 | 1 | 0.93 | 0.976 | 0.985 | 1.02 | 0.73 | 0.947
NCI-H1563 | – | – | – | – | – | – | – | – | – | – | – | – | – | – | – | 0.623 | 0.863 | 0.931 | 0.769 | 1.01
NCI-H1648 | 0.607 | 0.959 | 0.836 | 0.582 | 0.504 | 0.636 | 0.455 | 0.477 | 0.481 | 0.408 | 1.3 | 0.925 | 0.746 | 0.777 | 0.695 | – | – | – | – | –
NCI-H1650 | – | – | – | – | – | 0.483 | 0.684 | 0.617 | 0.594 | 0.459 | 0.692 | 0.822 | 0.818 | 0.77 | 0.739 | 0.395 | 0.665 | 0.739 | 0.521 | 0.839
NCI-H1703 | – | 0.139 | 0.101 | 0.182 | 0.109 | – | – | – | – | – | 0.34 | 0.447 | 0.465 | 0.389 | 0.357 | 1.07 | 1.03 | 1.04 | 0.863 | 1.32
NCI-H2009 | – | – | – | – | – | 0.231 | 0.321 | 0.232 | 0.273 | 0.268 | 0.651 | 0.778 | 0.734 | 0.698 | 0.697 | 0.368 | 0.906 | 0.847 | 0.457 | 0.813
NCI-H2023 | – | – | – | – | – | 0.564 | 0.675 | 0.572 | 0.762 | 0.657 | 0.461 | 0.487 | 0.463 | 0.511 | 0.501 | 0.274 | 0.737 | 0.638 | 0.291 | 0.589
NCI-H2228 | – | – | – | – | – | 0.202 | 0.652 | 0.533 | 0.651 | 0.565 | 0.379 | 0.616 | 0.593 | 0.707 | 0.749 | 1.25 | 1.19 | 0.848 | 0.747 | 0.904
NCI-H2342 | 0.421 | 0.541 | 0.51 | 0.525 | 0.492 | 0.897 | 0.904 | 0.895 | 0.988 | 0.88 | 0.43 | 0.441 | 0.359 | 0.486 | 0.463 | – | – | – | – | –
SK-LU-1 | – | – | – | – | – | 0.463 | 0.514 | 0.493 | 0.547 | 0.531 | 0.456 | 0.569 | 0.452 | 0.47 | 0.488 | 0.937 | 0.911 | 0.948 | 0.599 | 0.935
SK-MES-1 | – | – | – | – | – | 0.625 | 0.587 | 0.561 | 0.587 | 0.61 | 0.833 | 0.771 | 0.734 | 0.823 | 0.682 | 0.461 | 0.447 | 0.458 | 0.439 | 0.447
SW 900 | 0.567 | 0.497 | 0.622 | 0.41 | 0.424 | 0.56 | 0.947 | 0.927 | 0.953 | 0.933 | 0.841 | 1.17 | 0.804 | 0.769 | 0.817 | – | – | – | – | –
SW 1573 | – | – | – | – | – | 0.521 | 0.488 | 0.658 | 0.572 | 0.654 | 0.504 | 0.437 | 0.558 | 0.465 | 0.438 | 1.1 | 1.14 | 1.02 | 0.798 | 0.81
UMC-11 | – | – | – | – | – | 0.558 | 0.876 | 0.712 | 0.779 | 0.744 | 0.366 | 0.678 | 0.322 | 0.352 | 0.384 | 1.03 | 1.06 | 0.933 | 0.764 | 1.06
